{"source": "paper PMC6094173", "about": "“Releasable and traceless PEGylation of arginine-rich antimicrobial peptides” (Chemical Science, 2017)", "key": {"E. coli B": {"test_system": "E. coli B", "type": "cell-based, Escherichia coli B", "conditions": "16 h", "description": "(§1) In order to validate that the PEGylated AMPs are resistant to proteolysis, [3 + 2a] (2 kDa) was incubated in ∼90% human serum (final concentration) spiked with 0.01 wt% trypsin for up to 24 h. To prevent de-PEGylation during this incubation period (i.e., to test the protease-resistance of the conjugate rather than the released AMP (known to be degradable; vide infra)), the concentration of [3 + 2a] was maintained high, and a small excess of free 2a was kept in solution. Based on Fig. 2 and 4, these conditions promote the forward PEGylation reaction and disfavor de-PEGylation. Following the incubation period (1 h, 6 h, or 24 h), serum proteins and trypsin were removed to stop proteolysis, and the integrity of the AMP 3 within the conjugate was evaluated via its anti-proliferative effect on E. coli. […]\nreaction by HPLC using the fluorescence detector. Kinetics were monitored in triplicate. […]\nTo determine peptide content, a known mass of conjugate was dissolved in 500 µL D2O, and the absorbance of the solution at 452 nm (the FITC dye on the peptide) was compared to a standard curve obtained with the pure peptide. Then, to deter mine the number of moles of mPEG within this solution, a small amount (5 µL) of dimethyl sulfoxide was quantitatively added to a known volume of the D2O solution, and a 1H NMR spectrum recorded. […]"}, "trypsin": {"test_system": "trypsin", "assay": "Resistance to proteolysis in human serum spiked with trypsin, read out by antibacterial activity", "type": "in vitro ADME", "conditions": "∼90% human serum with 0.01 wt% trypsin, r.t.; read-out anti-proliferative effect on E. coli", "description": "as §1\n[…] 5 h t o obtain mid-logarithmic phase organisms (10^9 cfu· mL –1). […] After this period, proteins were immediately removed by addition of 1.5 mL acetonitrile, sedimentation of precipitate by centrifugation, quantitative recovery of the supernatant, and drying by freeze-drying (FreeZone 4.5, Labconco). […] After addition of analyte to the w el l, the mi cr op lat e was in cub at ed at 37 °C for 16 h with shaking, and growth inhibition was determined by measuring absorbance at 620 nm using a Cytation 5 multi- mode microplate reader (BioTek Inc., VT). […]"}}, "note": "Square brackets hold non-standard residues; d marks the D form. Peptide text beside a SMILES is read from it. * marks the point of attachment. FITC = O=C1OC2(c3ccc(O)cc3Oc3cc(O)ccc32)c2ccc(NC(=S)*)cc21; Ahx = NCCCCCC(=O)O", "data": [{"smiles": "CC[C@@H](C)[C@@H](NC(=O)[C@H](CCCNC(=N)N)NC(=O)[C@H](CCC(N)=O)NC(=O)[C@@H](NC(=O)[C@H](NC(=O)[C@H](CCCNC(=N)N)NC(=O)[C@H](CCCCN)NC(=O)[C@H](Cc1ccccc1)NC(=O)CNC(=O)CCCCCNC(=S)Nc1ccc2c(c1)C(=O)OC21c2ccc(O)cc2Oc2cc(O)ccc21)[C@H](C)CC)C(C)C)C(=O)N[C@@H](CCCCN)C(=O)N[C@@H](CC(=O)O)C(=O)N[C@@H](Cc1ccccc1)C(=O)N[C@H](CC(C)C)C(=O)N[C@@H](CCCNC(=N)N)C(=O)N[C@@H](CC(N)=O)C(=O)N[C@@H](CC(C)C)C(=O)N[C@H](C(N)=O)C(C)C", "note": "[compound 3] ({FITC-Ahx}-GFKR[dI]VQR[dI]KDF[dL]RNLV-NH2)", "values": [{"measurement": "IC50", "setting": "E. coli B", "result": "8 ± 5", "unit": "µM"}, {"measurement": "Time to loss of antimicrobial properties in trypsin-spiked serum", "setting": "trypsin", "result": "less than 6 h"}]}]}
